Columns and labels:
RIG-I = biological target: T1, RIG-I (Homo sapiens, UniProt O95786); test: IRF3-luciferase assay in HEK 293 cells transfected with RIGI; format: cell-based; details: 100 or 500 nM; 8 h or 16 h incubation
T1 construct: expressed in transfected cells; host or cells: HEK 293
T1 sequence (O95786 1-925): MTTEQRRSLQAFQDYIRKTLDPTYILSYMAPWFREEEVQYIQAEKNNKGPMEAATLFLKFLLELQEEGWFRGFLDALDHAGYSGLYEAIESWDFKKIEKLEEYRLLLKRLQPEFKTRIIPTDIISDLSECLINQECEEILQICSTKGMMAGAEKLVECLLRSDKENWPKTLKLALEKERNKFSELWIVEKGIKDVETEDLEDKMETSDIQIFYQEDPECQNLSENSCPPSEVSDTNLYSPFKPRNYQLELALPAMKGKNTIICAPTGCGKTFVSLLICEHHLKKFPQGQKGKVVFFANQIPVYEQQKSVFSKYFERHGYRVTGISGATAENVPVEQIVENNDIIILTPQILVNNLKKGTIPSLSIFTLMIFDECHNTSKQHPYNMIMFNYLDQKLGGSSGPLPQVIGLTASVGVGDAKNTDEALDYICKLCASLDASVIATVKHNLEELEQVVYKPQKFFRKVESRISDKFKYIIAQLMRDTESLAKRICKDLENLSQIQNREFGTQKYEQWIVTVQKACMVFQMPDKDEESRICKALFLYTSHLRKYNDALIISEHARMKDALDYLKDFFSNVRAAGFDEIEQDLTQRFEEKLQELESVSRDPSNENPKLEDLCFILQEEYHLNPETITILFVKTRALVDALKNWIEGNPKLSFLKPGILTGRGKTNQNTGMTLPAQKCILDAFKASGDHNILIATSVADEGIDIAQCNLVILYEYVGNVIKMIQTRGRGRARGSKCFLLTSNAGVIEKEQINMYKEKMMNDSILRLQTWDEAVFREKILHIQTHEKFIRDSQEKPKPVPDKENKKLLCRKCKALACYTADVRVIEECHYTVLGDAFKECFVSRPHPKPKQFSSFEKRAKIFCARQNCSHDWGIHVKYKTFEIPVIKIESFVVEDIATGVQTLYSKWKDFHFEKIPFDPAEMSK
Experimental: HEK 293 cells were transfected with RIGI, pcDNA and IRF3-luciferase. The cells were then incubated with SB 44 (100 or 500 nM). Following 8 h or 16 h incubation, Luciferase activity was measured as described previously. The Luciferase assay results are presented as mean±S.D. from three independent experiments.

phosphorylated IRF3 = test: Western blot for phosphorylated IRF3 in human lung epithelial A549 cells; format: cell-based; details: 500 nM, Western blotting
Experimental: Human lung epithelial A549 cells were incubated with either DMSO or SB 44 (500 nM). At indicated post-treatment time-points, the cell lysate was subjected to Western blotting with antibody specific for phosphorylated IRF3 (phospho-IRF3) (Cell signaling).

M. tuberculosis = tested on: M. tuberculosis; set-up: species or system C57Bl/6 mice; details: mouse, in vivo
[1] = tested on: peripheral blood mononuclear cells (PBMCs); test: Multiplex assay for 28 cytokines in PBMCs; format: cell-based, human; details: up to 50 μM
[2] = Bioreversibility of SB 44 in serum; format: in vitro ADME
Excerpt: Similar to the serum-mediated conversion of SB 44 to SB 40, in the case of microsomes liver esterases appear to be the major metabolizing enzymes involved in the hydrolytic conversion of SB 44 to SB 40. […] The facile bioconversion of SB 44 to SB 40 in liver and plasma is also consistent with broad substrate specificity of the ubiquitous esterase enzymes.

[3] = Dose range-finding oral study in cynomolgus monkeys; format: in vivo; details: 500 mg/kg/day oral for 4 days
Experimental: The objective of this study was to determine a maximum tolerated dose (MTD) and a no observable adverse effect level (NOAEL) for the endpoints examined following daily oral gavage of SB 44 for 4 consecutive days to cynomolgus monkeys. Information from this study was used to design subsequent dose-ranging toxicity studies and determine the suitability of the proposed human dose.
SB 44 was administered orally to cynomolgus monkeys consecutively for 4 days at 500 mg/kg/day.

[4] = liver microsomes
Experimental: SB 44 (10 μM) was incubated with a mix containing S9 fraction (pooled from human) (1 mg/ml), NADPH (1.3 mM) UDPGA (5 mM), Alamethicin (10 μg/ml) in 1 ml of 1×PBS buffer. […] The metabolite samples were evaluated by HPLC and LC/MS analysis.

COC1C(OP(=O)(OCC2OC(n3cnc4c(N)ncnc43)CC2O)SCOC(=O)OC(C)C)C(CO)OC1n1ccc(=O)[nH]c1=O (mixture of isomers) [SB 44]
IRF3 induction following activation of RIG-I (RIG-I): IRF3 induction following activation of RIG-I
activated IRF3 (phospho-IRF3) detection (phosphorylated IRF3): detection of activated IRF3
Mtb counts of lungs (M. tuberculosis): reducing Mtb counts of lungs better than either BCG or MDP+BCG
Mtb counts of spleens (M. tuberculosis): better than BCG vaccine in reducing Mtb counts of spleens
adjuvant efficacy with BCG vaccine against tuberculosis (M. tuberculosis): better than muramyl dipeptide (MDP) as adjuvants
anti-TB T cell function of mice (M. tuberculosis): dramatic increase in anti-TB T cell function of mice
memory precursor T cells (MPECs) (M. tuberculosis): induces better memory precursor T cells (MPECs) than BCG vaccine
tetramer specific CD8 T cells (M. tuberculosis): comparable levels of tetramer specific CD8 T cells
cytokine induction in human PBMC cultures [1]: did not cause cytokine induction
conversion rates of the individual isomers [2]: almost equal rates
elevation of ALT [3]: about 2 fold
elevation of AST [3]: about 6 fold
tolerability [3]: clinically well tolerated
minor metabolites [4]: < 10%
rate differences in conversion of Rp- and Sp-isomers [4]: no significant rate differences
desulfurized product ([4]; MS analysis): < 5%
conversion of prodrug to SB 40 ([4]; up to eight hours): stereospecific conversion to the dinucleotide Rp, Sp-SB 40
